Reference: patent US20250090699A1, “FAP TARGETING CYCLIC PEPTIDES AND CONJUGATES THEREOF” (Novartis AG, priority 2023, published 2025)
Structures can show the parent of a compound that is named as a salt. Starred links: 1 amine or outer side, 2 acyl side, 3 side chain; linkers in the order of their positions; H or OH if unused. Non-standard residues stand in square brackets, D forms with d. Residues, ends and D or L forms follow the SMILES beside them. Groups on a side chain read outwards from the residue. Primed or numbered codes have the meaning given here. *: point of attachment. F(4amPEG2NH-NOTA-AlF) = aluminum [18F]fluoride complex of (S)-2,2'-(7-(1-(4-(2-amino-2-carboxyethyl)phenyl)-3,12-dioxo-5,8-dioxa-2,11-diazatridecan-13-yl)-1,4,7-triazonane-1,4-diyl)diacetic acid (Phe with 4-aminomethyl-PEG2-NOTA-Al18F), O=C([O-])CN1CCN(CC(=O)[O-])CCN(CC(=O)NCCOCCOCC(=O)NCc2ccc(C[C@H](N[*:1])C(=O)[*:2])cc2)CC1.[18F][Al+2]; F4(amGlyDOTALu) = lutetium complex of (S)-2,2',2''-(10-(2-((2-((4-(2-amino-2-carboxyethyl)benzyl)amino)-2-oxoethyl)amino)-2-oxoethyl)-1,4,7,10-tetraazacyclododecane-1,4,7-triyl)triacetic acid (Phe with 4-aminomethyl-Gly-DOTA-Lu), O=C([O-])CN1CCN(CC(=O)[O-])CCN(CC(=O)NCC(=O)NCc2ccc(C[C@H](N[*:1])C(=O)[*:2])cc2)CCN(CC(=O)[O-])CC1.[Lu+3]; F(4OEtNHDOTA-Lu) = lutetium complex of (S)-2,2',2''-(10-(2-((2-(4-(2-amino-2-carboxyethyl)phenoxy)ethyl)amino)-2-oxoethyl)-1,4,7,10-tetraazacyclododecane-1,4,7-triyl)triacetic acid (Phe with 4-O-ethylamino-DOTA-Lu), O=C([O-])CN1CCN(CC(=O)[O-])CCN(CC(=O)NCCOc2ccc(C[C@H](N[*:1])C(=O)[*:2])cc2)CCN(CC(=O)[O-])CC1.[Lu+3]; F(4amPEG2NHAAZTA-Lu) = lutetium complex of (S)-2,2'-((6-(1-(4-(2-amino-2-carboxyethyl)phenyl)-3,12-dioxo-5,8-dioxa-2,11-diazahexadecan-16-yl)-1,4-bis(carboxymethyl)-1,4-diazepan-6-yl)azanediyl)diacetic acid (Phe with 4-aminomethyl-PEG2-AAZTA-L; COpipzaa″ = 4-(carboxymethyl)piperazine-1-carbonyl on Lys N6, O=C(O)CN1CCN(C(=O)*)CC1; COpipzaa = 4-(carboxymethyl)piperazine-1-carbonyl, O=C(O)CN1CCN(C(=O)*)CC1; AAZTA5 = O=C(O)CN1CCN(CC(=O)O)CC(CCCCC(=O)*)(N(CC(=O)O)CC(=O)O)C1; hS(Pr) = O-propyl-L-homoserine, CCCOCC[C@H](N[*:1])C(=O)[*:2]; DOTA = O=C(O)CN1CCN(CC(=O)O)CCN(CC(=O)*)CCN(CC(=O)O)CC1; Phe(4-CH2NH2) = NCc1ccc(C[C@H](N)C(=O)O)cc1; Piperazinyl(4-CH2COOH) = O=C(O)CN1CCN(*)CC1; NMeF = CN[C@@H](Cc1ccccc1)C(=O)O; d(αMeP) = C[C@]1(C(=O)O)CCCN1; Ahp(2) = CCCCC[C@H](N)C(=O)O; hSer = N[C@@H](CCO)C(=O)O; AEEA = NCCOCCOCC(=O)O; CO = O=C([*:1])[*:2]; Sar = CNCC(=O)O; Propyl = CCC*

How the values were obtained:
mouse FAP [1] = target: T1, mouse FAP (Mus musculus, UniProt P97321); experiment: Surface plasmon resonance (SPR) for peptide affinity, mouse FAP; format: binding
T1 construct: biotinylated His, Avi tag, mouse FAP (26-761, FAP-M82Q5); His; Avi tag (biotinylated); purchased AcroBiosystems FAP-M82Q5
T1 sequence (P97321 26-761): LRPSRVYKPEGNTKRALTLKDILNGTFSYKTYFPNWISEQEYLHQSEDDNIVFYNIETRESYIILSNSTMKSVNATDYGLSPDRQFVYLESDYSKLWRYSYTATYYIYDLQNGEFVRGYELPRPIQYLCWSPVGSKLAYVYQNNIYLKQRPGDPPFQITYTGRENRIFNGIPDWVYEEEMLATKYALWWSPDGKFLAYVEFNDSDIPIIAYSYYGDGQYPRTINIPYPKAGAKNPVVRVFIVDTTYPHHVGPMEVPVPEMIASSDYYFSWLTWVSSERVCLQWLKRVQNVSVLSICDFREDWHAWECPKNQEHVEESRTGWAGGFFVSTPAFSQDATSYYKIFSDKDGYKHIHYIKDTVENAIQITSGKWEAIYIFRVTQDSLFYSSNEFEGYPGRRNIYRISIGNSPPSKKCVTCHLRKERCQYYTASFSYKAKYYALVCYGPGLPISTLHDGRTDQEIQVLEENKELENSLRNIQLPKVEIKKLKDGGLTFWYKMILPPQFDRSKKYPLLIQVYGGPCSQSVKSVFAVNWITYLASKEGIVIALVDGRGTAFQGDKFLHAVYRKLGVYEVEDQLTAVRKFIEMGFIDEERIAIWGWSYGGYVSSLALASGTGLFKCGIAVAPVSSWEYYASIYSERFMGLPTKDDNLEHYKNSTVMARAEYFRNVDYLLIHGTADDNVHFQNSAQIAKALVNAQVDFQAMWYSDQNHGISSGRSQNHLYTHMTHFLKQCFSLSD
Summary of the method: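 KD values come from a 1:1 kinetic fit of single-cycle SPR data: 8 peptide concentrations, 25 °C, 30 μL/min, HEPES-buffered saline pH 7.6 with 2% DMSO. Targets were His/Avi-tagged human (26-760) or mouse (26-761) FAP, amine-coupled to CM5 or held on a CAPture chip.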

human FAP = target: T2, human FAP (Homo sapiens, UniProt Q12884); experiment: Enzymatic FAP competition assay (Z-Gly-Pro-AMC fluorescence), human FAP; format: biochemical; conditions: read-out: h. FAP, Enz., IC50
T2 construct: the biotinylated His, Avi tag, human FAP (26-760, FAP-H82Q6); His; Avi tag (biotinylated); purchased AcroBiosystems FAP-H82Q6
T2 sequence (Q12884 26-760): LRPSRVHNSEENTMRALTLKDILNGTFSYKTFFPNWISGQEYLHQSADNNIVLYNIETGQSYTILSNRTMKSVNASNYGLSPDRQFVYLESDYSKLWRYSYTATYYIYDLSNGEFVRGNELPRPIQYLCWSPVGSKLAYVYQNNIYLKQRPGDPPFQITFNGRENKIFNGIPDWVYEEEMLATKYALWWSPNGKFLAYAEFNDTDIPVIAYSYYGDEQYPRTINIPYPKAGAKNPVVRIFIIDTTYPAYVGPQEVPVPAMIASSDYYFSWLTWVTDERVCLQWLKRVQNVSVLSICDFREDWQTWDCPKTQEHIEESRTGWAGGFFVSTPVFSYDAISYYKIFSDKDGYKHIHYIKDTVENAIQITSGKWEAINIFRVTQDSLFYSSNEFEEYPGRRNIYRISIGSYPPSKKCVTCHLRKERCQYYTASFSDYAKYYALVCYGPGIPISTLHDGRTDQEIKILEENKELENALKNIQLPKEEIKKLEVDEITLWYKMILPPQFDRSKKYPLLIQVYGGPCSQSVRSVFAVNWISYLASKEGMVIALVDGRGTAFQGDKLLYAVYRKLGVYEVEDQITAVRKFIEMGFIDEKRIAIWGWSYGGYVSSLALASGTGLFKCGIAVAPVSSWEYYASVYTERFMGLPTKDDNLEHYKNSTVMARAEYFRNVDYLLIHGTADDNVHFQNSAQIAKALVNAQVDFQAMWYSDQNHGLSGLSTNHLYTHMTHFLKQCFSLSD
Summary of the method: (§1)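 IC50 values come from curve fitting of duplicate % inhibition data on AMC fluorescence (ex 380, em 460 nm) after 4 h at 22-24° C with 50 μM Z-Gly-Pro-AMC. Beforehand, peptides up to 1 μM (14 levels) sat 24 h with 0.01 nM human (26-760) or mouse (26-761) tagged FAP in phosphate buffer pH 7.5, NaCl, Tween20, 1% DMSO.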

mouse FAP [2] = target: T1, mouse FAP; experiment: Enzymatic FAP competition assay (Z-Gly-Pro-AMC fluorescence), mouse FAP; format: biochemical; conditions: read-out: m. FAP, Enz., IC50
Summary of the method: as §1

Row | Molecule | Kd (mouse FAP [1]) [nM] | IC50 (human FAP) [nM] | IC50 (mouse FAP [2]) [nM]
1 | CCCCC[C@@H]1NC(=O)[C@H](Cc2ccc(O)cc2)NC(=O)[C@H](Cc2ccccc2)N(C)C(=O)CNC(=O)CNC(=O)[C@@]2(C)CCCN2C(=O)[C@H](CC(=O)O)NC(=O)[C@H](Cc2ccc(O)cc2)NC(=O)CNC(=O)[C@H](Cc2c[nH]c3ccccc23)NC1=O [Example A70, Gly-Gly-NMePhe-Tyr-Ahp-Trp-Gly-Tyr-Asp-D-aMeP] (cyclo([Ahp(2)]WGYD[d(αMeP)]GG[NMeF]Y)) | 0.104 | 0.036 | 0.116
2 | Gly-Gly-NMePhe-F(4amPEG2NH-NOTA-AlF)-hS(Pr)-Trp-Gly-K(COpipzaa)-Asp-D-Pro (cyclo(GG[NMeF][F(4amPEG2NH-NOTA-AlF)][hS(Pr)]WGK(COpipzaa)D[dP]); also: Al[18F]F complex) [Example C53] | < 0.035 | 0.013 | 0.035
3 | CCCCC[C@@H]1NC(=O)[C@H](Cc2ccc(O)cc2)NC(=O)[C@H](Cc2ccccc2)N(C)C(=O)CNC(=O)CNC(=O)CN(C)C(=O)[C@H](CC(=O)O)NC(=O)[C@H](Cc2ccc(O)cc2)NC(=O)CNC(=O)[C@H](Cc2c[nH]c3ccccc23)NC1=O [Example A68, Gly-Gly-NMePhe-Tyr-Ahp-Trp-Gly-Tyr-Asp-NMeGly] (cyclo([Ahp(2)]WGYD[Sar]GG[NMeF]Y)) | 35 | 12 | 80
4 | CCCCC[C@@H]1NC(=O)[C@H](Cc2ccc(CNC(=O)COCCOCCNC(=O)CN3CCN(CC(=O)O)CCN(CC(=O)O)CCN(CC(=O)O)CC3)cc2)NC(=O)[C@H](Cc2ccccc2)N(C)C(=O)CNC(=O)CNC(=O)[C@H]2CCCN2C(=O)[C@H](CC(=O)O)NC(=O)[C@H](Cc2ccc(O)cc2)NC(=O)CNC(=O)[C@H](Cc2c[nH]c3ccccc23)NC1=O [Example B16, Gly-Gly-NMePhe-F(4amPEG2NHDOTA)-Ahp-Trp-Gly-Tyr-Asp-D-Pro, TFA salt] (cyclo([Ahp(2)]WGYD[dP]GG[NMeF][Phe(4-CH2NH2)]([AEEA-DOTA]))) | 0.01 | 0.009 | 0.03
5 | CCCOCC[C@@H]1NC(=O)[C@H](Cc2ccc(CNC(=O)COCCOCCNC(=O)CCCCC3(N(CC(=O)O)CC(=O)O)CN(CC(=O)O)CCN(CC(=O)O)C3)cc2)NC(=O)[C@H](Cc2ccccc2)N(C)C(=O)CNC(=O)CNC(=O)[C@H]2CCCN2C(=O)[C@H](CC(=O)O)NC(=O)[C@H](CCCCNC(=O)N2CCN(CC(=O)O)CC2)NC(=O)CNC(=O)[C@H](Cc2c[nH]c3ccccc23)NC1=O [Example B31, Gly-Gly-NMePhe-F(4amPEG2NHAAZTA)-hS(Pr)-Trp-Gly-K(COpipzaa)-Asp-D-Pro] (cyclo(D[dP]GG[NMeF][Phe(4-CH2NH2)]([AEEA-AAZTA5])[hSer](Propyl)WGK([CO-Piperazinyl(4-CH2COOH)]))) | 0.25 | 0.03 | 0.1
6 | Gly-Gly-NMePhe-F(4amPEG2NHAAZTA-Lu)-hS(Pr)-Trp-Gly-K(COpipzaa)-Asp-D-Pro (cyclo(GG[NMeF][F(4amPEG2NHAAZTA-Lu)][hS(Pr)]WGK(COpipzaa)D[dP]); also: Lu complex) [Example C32] | < 0.027 | 0.017 | 0.044
7 | Gly-Gly-NMePhe-F4(amGlyDOTALu)-Ahp-Trp-Gly-Tyr-Asp-D-Pro (cyclo(GG[NMeF][F4(amGlyDOTALu)][Ahp(2)]WGYD[dP]); also: Lu complex) [Example C9] | 0.032 | 0.01 | 0.024
8 | K(COpipzaa)-Gly-NMePhe-F(4OEtNHDOTA-Lu)-Ahp-Trp-Gly-Tyr-Asp-D-Pro (cyclo(K(COpipzaa″)G[NMeF][F(4OEtNHDOTA-Lu)][Ahp(2)]WGYD[dP]); also: Lu complex) [Example C25] | 0.34 | 0.098 | 0.35
